Reference: patent publication US5373089A, “Oxytocin antagonist” (Northwestern University, priority 1993, dated 1994)
Starred links: 1 amine or outer side, 2 acyl side, 3 side chain; linkers in the order of their positions; H or OH if unused. Positions of bridges follow the written chain, without caps; N, C: chain ends. Non-standard residues stand in square brackets, D forms with d. Residues, ends and D or L forms follow the SMILES beside them. X1 = O=C(CC1(S[*:2])CCCCC1)[*:1]

Assays:
ADH = ADH bioassay (alteration in urine output due to ADH); format: in vivo; settings: for ADH Bioassay pA2: in vivo
Protocol: The above compound was also tested for antagonism to vasopressin. Anti-ADH activity can be determined by measuring the alteration in urine output due to ADH in the presence and absence of the antagonist. A suitable ADH-assay is described in Sawyer, et al., Endocrinology, 63:694 (1958). […] The ratio of oxytocin antagonism to ADH antagonism was very high, viz. over 1, 866, as compared with 200 for the compositions disclosed in the parent applications.
The anti-ADH activity is measured by the alteration in urine […] in the presence and absence of the antagonist to determine the specificity of the antagonist. The anti-ADH assay is described in Sawyer, et al., Endocrinology, 63:694 (1958).

RAT OXYTOCIN RECEPTOR = target: T1, RAT OXYTOCIN RECEPTOR (Rattus norvegicus, UniProt P70536); experiment: Oxytocin receptor assay, pregnant rat uterus (P21) membranes, 3H-OT competition; format: binding
T1 construct: from tissue; host or cells: uterus of day-21 pregnant Holtzman rats, sucrose-gradient membrane fraction
T1 sequence (P70536 1-388): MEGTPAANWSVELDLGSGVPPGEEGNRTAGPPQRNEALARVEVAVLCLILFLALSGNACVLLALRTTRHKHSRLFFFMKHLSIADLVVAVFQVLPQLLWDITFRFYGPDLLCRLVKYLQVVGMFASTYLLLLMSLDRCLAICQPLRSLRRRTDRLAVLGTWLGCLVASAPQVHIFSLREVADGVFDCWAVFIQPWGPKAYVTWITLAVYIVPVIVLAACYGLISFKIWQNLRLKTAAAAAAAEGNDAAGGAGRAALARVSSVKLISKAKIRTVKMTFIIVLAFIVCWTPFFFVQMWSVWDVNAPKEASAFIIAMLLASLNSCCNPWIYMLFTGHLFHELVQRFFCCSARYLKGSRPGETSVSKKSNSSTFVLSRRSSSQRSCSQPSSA
Protocol: Uterine tissue was removed on day 21 of pregnancy (delivery=Days 211/2 to 221/2) from Holtzman rats. The tissue was emptied of its contents, rinsed in ice cold buffer, cut into small pieces and frozen at -70° C. until homogenization.
Oxytocin receptors (OTrs) reside on the cell membrane and are present at high concentrations at the end of pregnancy in uterine tissue. Frozen tissue is homogenized in Tris buffer, the homogenate filtered, and the filtrate centrifuged at 1000 g for 15 minutes at 4° C. The supernatant is centrifuged at 40,000 g for 30 minutes and the pellet containing the cell membranes resuspended in 10% sucrose. Density gradient ultracentrifugation is then performed by placing the 10 % sucrose suspension on top of 35% sucrose and centrifuging for 30 minutes in a swing bucket rotor at 105,000 g. The membranes at the interface of the 10%/35% sucrose are removed and resuspended in Tris buffer containing EDTA for 30 minutes. This procedure removes divalent cation and results in dissociation of any endogenously bound OT to the receptor. This mixture is then centrifuged for 15 minutes at 100,000 g and the pellet containing the membrane OTrs resuspended in Tris, PMSF, Mg^++, buffer by sonication.
The binding assay consist of 0.1 ml of 20,000 cmp of tritium labeled OT (New England Nuclear, […]), 0.1 ml of OT antagonist added at increasing concentration, 0.25 ml of buffer and 0.05 ml of membrane (70-150 ug protein). A nonspecific tube has 100× of cold OTA added to it. The incubation is for 30 minutes at 30 ° C. The membrane is pelleted by centrifugation in ultraclear mini tubes (5×41 mm) for 30 minutes at 105,000 g. The resulting pellet containing the bound ^3 H-OT is dissolved in 0.1N NaOH at 45 ° C. for 30 minutes and this mixture is then placed in liquid scintillation counting fluid and counted for dpms in a scintillation counter.
The data is analyzed by nonlinear curve fitting methods using McPherson's EBDA (J Pharmacol Methods 14:213-228, 1985) and Munson and Rodbard's LIGAND (Anal Biochem 107:220-239, 1980) program for saturation and competition analysis for determining Kds and Kis.

Molecule | ADH Bioassay pA2 (ADH) | activity as a vasopressin antagonist (ADH; result in words) | RECEPTOR ASSAY Ka (RAT OXYTOCIN RECEPTOR; pregnant rat uterus (P21), Table 3) | rOTr (OTA/ANTI) (RAT OXYTOCIN RECEPTOR; ratio of binding affinity to ANTAG I, rat oxytocin receptor) | Kd (RAT OXYTOCIN RECEPTOR)
[(S)Pmp^1,D-Trp^2,Pen^6,Arg^8 ] oxytocin [Compound D] | < 5.75 | very low activity | 24.40 10^+8 M^-1 | 20.0 | 
CC[C@H](C)[C@@H]1NC(=O)[C@H](Cc2ccccc2)NC(=O)[C@@H](Cc2c[nH]c3ccccc23)NC(=O)CC2(CCCCC2)SSC[C@@H](C(=O)N2CCC[C@H]2C(=O)N[C@@H](CCCNC(=N)N)C(=O)NCC(N)=O)NC(=O)[C@H](CC(N)=O)NC1=O [Compound B, [Pmp^1,D-Trp^2,Phe^3,Ile^4,Arg^8] oxytocin] ([dW]FINCPRG-NH2; linker N-5 via X1) | 7.40 |  |  |  | 8.62 nM
